Reference: patent US7741488B2, “Tetrahydropyridothiophenes as antiproliferative agents for the treatment of cancer” (4SC AG, priority 2005, dated 2010)

How the values were obtained:
[1] = system: RKO (RKOp27) human colon adenocarcinoma cells; assay: Alamar Blue cell viability assay, anti-proliferative/cytotoxic activity on proliferating (uninduced) RKO p27 cells; assay type: cell-based; details: RKOp27, 72 h, proliferating cells without inducer Ponasterone A
Outline: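 RKOp27 subclones (4000 cells/well) were seeded 24 h before treatment with semi-log compound dilutions in DMEM/10% FCS, in quadruplicate, for 72 h at 37° C. Alamar Blue fluorescence (544 nm excitation/590 nm emission) was normalised to untreated cells (100%), and IC50 values were taken from concentration-effect curves.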

[2] = system: RKOp27 colon adenocarcinoma cells arrested by expression of ectopic p27Kip1; assay: Alamar Blue cell viability assay on RKO p27 cells arrested by Ponasterone A induced p27Kip1 (cell cycle specific mode of action); assay type: cell-based; details: Homo sapiens, 72 hours, cells arrested by p27Kip1 induced with 10 μM Ponasterone A
Outline: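 RKOp27 cells, 16000 per well in DMEM/10% FCS, arrested by p27Kip1 induced with 10 μM Ponasterone A, then dosed 24 h later and incubated 72 h at 37° C, quadruplicates. Alamar Blue fluorescence (544/590 nm) gave viability as % of untreated cells, set against proliferating cells grown without inducer.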

IC50 [2] | Compound | IC50 [1]
> 100 µM | COc1cccc(CCC(=O)Nc2sc3c(c2C#N)CCN(C(=O)OCCn2cnc(C)c2)C3)c1 [Example 142, 3-Cyano-2-[3-(3-methoxy-phenyl)-propanoylamino]-4,7-dihydro-5H-thieno[2,3-c]pyridine-6-carboxylic acid 2-(4-methyl-imidazol-1-yl)-ethyl ester] | ≤ 300 nM
> 100 µM | COc1ccccc1CCC(=O)Nc1sc2c(c1C#N)CCN(C(=O)OCC(=O)O)C2 [Example 153, 3-Cyano-2-[3-(2-methoxy-phenyl)-propanoylamino]-4,7-dihydro-5H-thieno[2,3-c]pyridine-6-carboxylic acid carboxymethyl ester] | 300 to 2000 nM
> 100 µM | COc1ccc(C)cc1CCC(=O)Nc1sc2c(c1C#N)CCN(C(=O)OCC(=O)O)C2 [Example 155, 3-Cyano-2-[3-(2-methoxy-5-methyl-phenyl)-propanoylamino]-4,7-dihydro-5H-thieno[2,3-c]pyridine-6-carboxylic acid carboxymethyl ester] | 300 to 2000 nM
> 100 µM | CCOc1ccccc1CCC(=O)Nc1sc2c(c1C#N)CCN(C(=O)OCC(=O)OC)C2 [Example 190, 3-Cyano-2-[3-(2-ethoxy-phenyl)-propanoylamino]-4,7-dihydro-5H-thieno[2,3-c]pyridine-6-carboxylic acid methoxycarbonylmethyl ester] | ≤ 300 nM
